Columns and labels:
Assay type in all cases: in vivo
[1] = system: cocklebur (Xanthium strumarium, XANST); test: Greenhouse herbicide screen, pre-emerge application, phytotoxicity rating; details: PRE emergent, 14 days after application, rating scale 0-100
Source text: (§1) A standard greenhouse herbicide activity screening system was used to evaluate the herbicidal efficacy and crop safety of these test compounds. Seven broadleaf weed species including redroot pigweed (Amaranthus retrofiexus, AMARE), velvetleaf (Abutilon theophrasti, ABUTH), sicklepod (Cassia obtusifolia, CASOB), ivyleaf morningglory (Ipomoea hederacea, IPOHE), lambsquarters (Chenopodium album, CHEAL), common ragweed (Ambrosia artemisiifolia L., AMBEL), and cocklebur (Xanthium strumarium, XANST) were used as test species. Four grass weed species including green foxtail (Setaria viridis, SETVI), barnyardgrass (Echinochloa crus-galli, ECHCG), johnsongrass (Sorghum halepense, SORHA), and large crabgrass (Digitaria sanguinalis, DIGSA) were also used. In addition, four crop species, field corn (Zea mays L., var. Dekalb 535, CORN), soybean (Glycine max L., var. Pella 86, SOY), upland rice (Oryza sp., var.Cocodrie, RICE) and wheat (Triticum aestivum L.) were included.
(§2) All plants were grown in 10 cm square plastic pots which were filled with a sandy loam soil mix. For pre-emerge tests, seeds were planted one day prior to application of the test compounds. For post-emerge tests, seeds were planted 8-21 days prior to the test to allow emergence and good foliage development prior to application of the test substances. At the time of the post-emerge application, plants of all species were usually at the 2-3 leaf stage of development.
(§3) All test compounds were dissolved in acetone and applied to the test units in a volume of 187 l/ha. Test materials were applied at rates ranging from 15 g ai/ha to 1000 g ai/ha using a track sprayer equipped with a TJ8001E even flow flat fan spray nozzle. Plants were arranged on a shelf so that the top of the canopy (post-emerge) or top of the soil surface (pre-emerge) was 40-45 cm below the nozzle. Pressurized air was used to force the test solution through the nozzle as it was mechanically advanced (via electrically driven chain drive) over the top of all test plants/pots. This application simulates a typical commercial field herbicide application.
(§4) Pre-emergence tests were top watered immediately after treatment to incorporate the test materials, then routinely top-watered for normal growth. Post-emerge test units were always bottom-watered.
(§5) At 14 days after application of the test materials, phytotoxicity ratings were recorded. A rating scale of 0-100 was used as previously described in Research Methods in Weed Science, 2nd edition, B. Truelove, Ed., Southern Weed Science Society, Auburn University, Auburn, Ala., 1977. Briefly, “0” corresponds to no damage and “100” corresponds to complete death of all plants in the test unit. This scale was used both to determine efficacy against weed species and damage to crop species. Herbicide activity data for various compounds of this invention, which are shown by compound No. in Tables 1-12, are shown in Tables 13 and 14.

[2] = system: johnsongrass (Sorghum halepense, SORHA); test: as above; details: PRE emergent, 14 days after application, rating scale 0-100
Source text: as §1, §2, §3, §4, §5

[3] = system: large crabgrass (Digitaria sanguinalis, DIGSA); test: as above; details: PRE emergent, 14 days after application, rating scale 0-100
Source text: as §1, §2, §3, §4, §5

[4] = system: redroot pigweed (Amaranthus retrofiexus, AMARE); test: as above; details: PRE emergent, 14 days after application, rating scale 0-100
Source text: as §1, §2, §3, §4, §5

[5] = system: common ragweed (Ambrosia artemisiifolia L., AMBEL); test: as above; details: PRE emergent, 14 days after application, rating scale 0-100
Source text: as §1, §2, §3, §4, §5

[6] = system: barnyardgrass (Echinochloa crus-galli, ECHCG); test: as above; details: PRE emergent, 14 days after application, rating scale 0-100
Source text: as §1, §2, §3, §4, §5

[7] = system: lambsquarters (Chenopodium album, CHEAL); test: as above; details: PRE emergent, 14 days after application, rating scale 0-100
Source text: as §1, §2, §3, §4, §5

[8] = system: green foxtail (Setaria viridis, SETVI); test: as above; details: PRE emergent, 14 days after application, rating scale 0-100
Source text: as §1, §2, §3, §4, §5

[9] = system: velvetleaf (Abutilon theophrasti, ABUTH); test: as above; details: PRE emergent, 14 days after application, rating scale 0-100
Source text: as §1, §2, §3, §4, §5

[10] = system: ivyleaf morningglory (Ipomoea hederacea, IPOHE); test: as above; details: PRE emergent, 14 days after application, rating scale 0-100
Source text: as §1, §2, §3, §4, §5

[11] = system: sicklepod (Cassia obtusifolia, CASOB); test: as above; details: PRE emergent, 14 days after application, rating scale 0-100
Source text: as §1, §2, §3, §4, §5

[12] = system: cocklebur (Xanthium strumarium, XANST); test: Greenhouse herbicide screen, post-emerge application, phytotoxicity rating; details: POST emergent, 14 days after application, scale 0-100
Source text: as §1, §2, §3, §4, §5

[13] = system: johnsongrass (Sorghum halepense, SORHA); test: as above; details: POST emergent, 14 days after application, scale 0-100
Source text: as §1, §2, §3, §4, §5

[14] = system: large crabgrass (Digitaria sanguinalis, DIGSA); test: as above; details: POST emergent, 14 days after application, scale 0-100
Source text: as §1, §2, §3, §4, §5

[15] = system: redroot pigweed (Amaranthus retrofiexus, AMARE); test: as above; details: POST emergent, 14 days after application
Source text: as §1, §2, §3, §4, §5

[16] = system: common ragweed (Ambrosia artemisiifolia L., AMBEL); test: as above; details: POST emergent, 14 days after application, scale 0-100
Source text: as §1, §2, §3, §4, §5

[17] = system: barnyardgrass (Echinochloa crus-galli, ECHCG); test: as above; details: POST emergent, 14 days after application, scale 0-100
Source text: as §1, §2, §3, §4, §5

[18] = system: lambsquarters (Chenopodium album, CHEAL); test: as above; details: POST emergent, 14 days after application, scale 0-100
Source text: as §1, §2, §3, §4, §5

[19] = system: green foxtail (Setaria viridis, SETVI); test: as above; details: POST emergent, 14 days after application, scale 0-100
Source text: as §1, §2, §3, §4, §5

[20] = system: velvetleaf (Abutilon theophrasti, ABUTH); test: as above; details: POST emergent, 14 days after application, scale 0-100
Source text: as §1, §2, §3, §4, §5

[21] = system: ivyleaf morningglory (Ipomoea hederacea, IPOHE); test: as above; details: POST emergent, 14 days after application, scale 0-100
Source text: as §1, §2, §3, §4, §5

[22] = system: sicklepod (Cassia obtusifolia, CASOB); test: as above; details: POST emergent, 14 days after application, scale 0-100
Source text: as §1, §2, §3, §4, §5

[23] = 63 g ai/ha, scale 0-100 (0 no damage, 100 complete death)

## CC(=NNC(=O)c1cc(-n2c(=O)cc(C(F)(F)F)n(C)c2=O)c(F)cc1Cl)C(C)(C)C [Compound 6-5, 2-chloro-5-(3,6-dihydro-3-methyl-2,6-dioxo-4-(trifluoromethyl)-1(2H)-pyrimidinyl)-4-fluoro-benzoic Acid, 2-(1,2,2-trimethylpropylidene)hydrazide]
[1]; 63 g ai/ha
  phytotoxicity rating XANST: 55
[1]; 250 g ai/ha
  phytotoxicity rating XANST: 99
[2]; 63 g ai/ha
  phytotoxicity rating SORHA: 85
[2]; 250 g ai/ha
  phytotoxicity rating SORHA: 99
[3]; 63 g ai/ha
  phytotoxicity rating DIGSA: 90
[3]; 250 g ai/ha
  phytotoxicity rating DIGSA: 99
[4]; 63 g ai/ha
  phytotoxicity rating AMARE: 99
[4]; 250 g ai/ha
  phytotoxicity rating AMARE: 100
[5]; 63 g ai/ha
  phytotoxicity rating AMBEL: 70
[5]; 250 g ai/ha
  phytotoxicity rating AMBEL: 100
[6]; 63 g ai/ha
  phytotoxicity rating ECHCG: 55
[6]; 250 g ai/ha
  phytotoxicity rating ECHCG: 90
[7]; 63 g ai/ha
  phytotoxicity rating CHEAL: 99
[7]; 250 g ai/ha
  phytotoxicity rating CHEAL: 100
[8]; 63 g ai/ha
  phytotoxicity rating SETVI: 60
[8]; 250 g ai/ha
  phytotoxicity rating SETVI: 85
[9]; 63 g ai/ha
  phytotoxicity rating ABUTH: 95
[9]; 250 g ai/ha
  phytotoxicity rating ABUTH: 100
[10]; 63 g ai/ha
  phytotoxicity rating IPOHE: 100
[10]; 250 g ai/ha
  phytotoxicity rating IPOHE: 100
[11]; 63 g ai/ha
  phytotoxicity rating CASOB: 50
[11]; 250 g ai/ha
  phytotoxicity rating CASOB: 70
[12]; 63 g ai/ha
  phytotoxicity rating XANST: 70
[12]; 250 g ai/ha
  phytotoxicity rating XANST: 100
[13]; 63 g ai/ha
  phytotoxicity rating SORHA: 0
[13]; 250 g ai/ha
  phytotoxicity rating SORHA: 90
[14]; 63 g ai/ha
  phytotoxicity rating DIGSA: 75
[14]; 250 g ai/ha
  phytotoxicity rating DIGSA: 80
[15]; [23]
  phytotoxicity rating AMARE: 70
[15]; 250 g ai/ha, scale 0-100
  phytotoxicity rating AMARE: 100
[16]; 63 g ai/ha
  phytotoxicity rating AMBEL: 60
[16]; 250 g ai/ha
  phytotoxicity rating AMBEL: 80
[17]; 63 g ai/ha
  phytotoxicity rating ECHCO: 80
[17]; 250 g ai/ha
  phytotoxicity rating ECHCO: 95
[18]; 63 g ai/ha
  phytotoxicity rating CHEAL: 60
[18]; 250 g ai/ha
  phytotoxicity rating CHEAL: 95
[19]; 63 g ai/ha
  phytotoxicity rating SETVI: 30
[19]; 250 g ai/ha
  phytotoxicity rating SETVI: 55
[20]; 63 g ai/ha
  phytotoxicity rating ABUTH: 65
[20]; 250 g ai/ha
  phytotoxicity rating ABUTH: 100
[21]; 63 g ai/ha
  phytotoxicity rating IPOHE: 75
[21]; 250 g ai/ha
  phytotoxicity rating IPOHE: 100
[22]; 63 g ai/ha
  phytotoxicity rating CASOB: 50
[22]; 250 g ai/ha
  phytotoxicity rating CASOB: 65

## CN(N=C(C(C)(C)C)C(C)(C)C)C(=O)c1cc(-n2c(=O)cc(C(F)(F)F)n(C)c2=O)c(F)cc1Cl [Compound 6-8, 2-chloro-5-(3,6-dihydro-3-methyl-2,6-dioxo-4-(trifluoromethyl)-1(2H)-pyrimidinyl)-4-fluoro-benzoic acid, 2-[1-(1,1-dimethylethyl)-2,2-dimethylpropylidene]-1-methylhydrazide]
[1]; 63 g ai/ha
  phytotoxicity rating XANST: 0
[1]; 250 g ai/ha
  phytotoxicity rating XANST: 70
[2]; 63 g ai/ha
  phytotoxicity rating SORHA: 55
[2]; 250 g ai/ha
  phytotoxicity rating SORHA: 100
[3]; 63 g ai/ha
  phytotoxicity rating DIGSA: 60
[3]; 250 g ai/ha
  phytotoxicity rating DIGSA: 95
[4]; 63 g ai/ha
  phytotoxicity rating AMARE: 100
[4]; 250 g ai/ha
  phytotoxicity rating AMARE: 100
[5]; 63 g ai/ha
  phytotoxicity rating AMBEL: 0
[5]; 250 g ai/ha
  phytotoxicity rating AMBEL: 99
[6]; 63 g ai/ha
  phytotoxicity rating ECHCG: 30
[6]; 250 g ai/ha
  phytotoxicity rating ECHCG: 85
[7]; 63 g ai/ha
  phytotoxicity rating CHEAL: 100
[7]; 250 g ai/ha
  phytotoxicity rating CHEAL: 100
[8]; 63 g ai/ha
  phytotoxicity rating SETVI: 55
[8]; 250 g ai/ha
  phytotoxicity rating SETVI: 99
[9]; 63 g ai/ha
  phytotoxicity rating ABUTH: 99
[9]; 250 g ai/ha
  phytotoxicity rating ABUTH: 99
[10]; 63 g ai/ha
  phytotoxicity rating IPOHE: 60
[10]; 250 g ai/ha
  phytotoxicity rating IPOHE: 100
[11]; 63 g ai/ha
  phytotoxicity rating CASOB: 20
[11]; 250 g ai/ha
  phytotoxicity rating CASOB: 70
[12]; 63 g ai/ha
  phytotoxicity rating XANST: 35
[12]; 250 g ai/ha
  phytotoxicity rating XANST: 100
[13]; 63 g ai/ha
  phytotoxicity rating SORHA: 65
[13]; 250 g ai/ha
  phytotoxicity rating SORHA: 95
[14]; 63 g ai/ha
  phytotoxicity rating DIGSA: 50
[14]; 250 g ai/ha
  phytotoxicity rating DIGSA: 60
[15]; [23]
  phytotoxicity rating AMARE: 99
[15]; 250 g ai/ha, scale 0-100
  phytotoxicity rating AMARE: 100
[16]; 63 g ai/ha
  phytotoxicity rating AMBEL: 70
[16]; 250 g ai/ha
  phytotoxicity rating AMBEL: 70
[17]; 63 g ai/ha
  phytotoxicity rating ECHCO: 60
[17]; 250 g ai/ha
  phytotoxicity rating ECHCO: 85
[18]; 63 g ai/ha
  phytotoxicity rating CHEAL: 80
[18]; 250 g ai/ha
  phytotoxicity rating CHEAL: 100
[19]; 63 g ai/ha
  phytotoxicity rating SETVI: 50
[19]; 250 g ai/ha
  phytotoxicity rating SETVI: 75
[20]; 63 g ai/ha
  phytotoxicity rating ABUTH: 50
[20]; 250 g ai/ha
  phytotoxicity rating ABUTH: 100
[21]; 63 g ai/ha
  phytotoxicity rating IPOHE: 100
[21]; 250 g ai/ha
  phytotoxicity rating IPOHE: 100
[22]; 63 g ai/ha
  phytotoxicity rating CASOB: 50
[22]; 250 g ai/ha
  phytotoxicity rating CASOB: 60
